This note sets out measurements from patent US11498896B2 (The Broad Institute, Inc., priority 2014, dated 2022).

Each structure is given as a SMILES string.

For assay [1], the target named is T1, human D2R/β-arrestin (Homo sapiens (Human), UniProt P14416). Nature of the assay: Gi/cAMP agonist assay (Lance Ultra cAMP, forskolin). The class given is cell-based. The settings on record: CHO-K1 cells expressing human D2R/β-arrestin; agonist mode, 2.5 μM forskolin. The protocol:
Eu-cAMP tracer solution (10 μl, PerkinElmer, 360 μl of Tracer in 17.64 ml kit buffer) and ULight-anti-cAMP solution (10 μl, 120 μL antibody in 17.88 ml kit buffer) was then added to each well.

The target in assay [2] is T1, human D2R/β-arrestin. The assay is described as follows: β-arrestin agonist assay (PathHunter). Type of assay: cell-based. The conditions noted are these: CHO-K1 cells expressing human D2R/β-arrestin; agonist mode. The protocol: The detection reagent (9.6 μL, Buffer:Emerald II:Galactor-Star in a 19:5:1 ratio, i.e., 14.06 mL:3.7 mL:0.74 mL=18.5 mL) was then added to the agonist plates.

Assay [3] deals with T1, human D2R/β-arrestin. Nature of the assay: cell-based. The conditions noted are these: β-arrestin Antagonist, CHO-K1 cells expressing human D2R/β-arrestin; antagonist mode, quinpirole 130 nM.
In assay [4] the target is T1, human D2R/β-arrestin. The assay is described as follows: cell-based. The conditions noted are these: cAMP Antagonist, CHO-K1 cells expressing human D2R/β-arrestin; antagonist mode, 2.5 μM forskolin and 2.7 nM quinpirole.

T1 sequence (P14416 whole entry): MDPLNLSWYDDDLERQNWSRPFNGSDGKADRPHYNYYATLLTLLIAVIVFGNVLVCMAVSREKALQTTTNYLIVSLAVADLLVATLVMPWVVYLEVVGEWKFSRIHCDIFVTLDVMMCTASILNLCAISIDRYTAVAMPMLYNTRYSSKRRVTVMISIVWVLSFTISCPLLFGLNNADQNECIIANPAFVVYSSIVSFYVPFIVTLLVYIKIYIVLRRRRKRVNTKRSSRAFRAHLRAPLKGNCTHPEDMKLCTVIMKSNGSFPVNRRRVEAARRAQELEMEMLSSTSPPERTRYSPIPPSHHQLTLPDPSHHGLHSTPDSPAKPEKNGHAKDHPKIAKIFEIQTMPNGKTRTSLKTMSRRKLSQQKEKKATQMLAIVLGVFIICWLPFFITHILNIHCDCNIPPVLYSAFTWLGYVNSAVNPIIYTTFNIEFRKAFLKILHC

On to `COc1cc2c(cc1O)C1Cc3ccc(O)c(OC)c3CN1CC2` (racemic) [D,L-Stepholidine, reference compound], for which the EC50 on human D2R/β-arrestin [1] and at human D2R/β-arrestin [2] was more than 30 µM throughout. Also, the IC50 against human D2R/β-arrestin [3] and at human D2R/β-arrestin [4] was less than 0.1 µM each time.

On to `CNC(=O)C1(C)CCN(CC2COc3ccccc3O2)CC1` (single isomer, unassigned) [Compound 202a, 1-((2,3-dihydrobenzo[b][1,4]dioxin-2-yl)methyl)-N,4-dimethylpiperidine-4-carboxamide], for which the EC50 (commonly the concentration at which the effect is half-maximal) on human D2R/β-arrestin [1] is 0.1 to 1 µM; at human D2R/β-arrestin [2] it was more than 30 µM. The IC50 (as a rule, the midpoint of a concentration-inhibition curve) against human D2R/β-arrestin [3] was in the range of 10 to 30 µM; against human D2R/β-arrestin [4], 1 to 10 µM.

Turning to `CC1(C(=O)NC2CC2)CCN(CC2COc3ccccc3O2)CC1` (single isomer, unassigned) [Compound 203a, N-cyclopropyl-1-((2,3-dihydrobenzo[b][1,4]dioxin-2-yl)methyl)-4-methylpiperidine-4-carboxamide], the half-maximal effective concentration (EC50) on human D2R/β-arrestin [1] was less than 0.1 µM; on human D2R/β-arrestin [2] it was more than 30 µM. Moreover, the IC50 against human D2R/β-arrestin [3] lay within 0.1 to 1 µM; against human D2R/β-arrestin [4], 1 to 10 µM.

In the case of `CC1(C(=O)NC2CC2)CCN(CC2COc3ccccc3O2)CC1` (single isomer, unassigned) [Compound 203b, N-cyclopropyl-1-((2,3-dihydrobenzo[b][1,4]dioxin-2-yl)methyl)-4-methylpiperidine-4-carboxamide], the EC50 at human D2R/β-arrestin [1] and on human D2R/β-arrestin [2] was more than 30 µM each time. The IC50 on human D2R/β-arrestin [3] and against human D2R/β-arrestin [4] was 10 to 30 µM throughout.

Consider `CC1(C(=O)Nc2ccccc2)CCN(CC2COc3ccccc3O2)CC1` (single isomer, unassigned) [Compound 204a, 1-((2,3-dihydrobenzo[b][1,4]dioxin-2-yl)methyl)-4-methyl-N-phenylpiperidine-4-carboxamide], for which the 50% effective concentration (EC50) at human D2R/β-arrestin [1] and on human D2R/β-arrestin [2] was more than 30 µM each time. The IC50 at human D2R/β-arrestin [3] and against human D2R/β-arrestin [4] was 1 to 10 µM in each case.

On to `FC(F)(F)c1ccccc1OCCN1CCC2(CC1)CC2c1ccc(Cl)cc1` (single isomer, unassigned) [Compound 216a, 1-(4-chlorophenyl)-6-(2-(2-(trifluoromethyl)phenoxy)ethyl)-6-azaspiro[2.5]octane], for which the EC50 at human D2R/β-arrestin [1] and at human D2R/β-arrestin [2] was more than 30 µM throughout. Moreover, the IC50 at human D2R/β-arrestin [3] and against human D2R/β-arrestin [4] was 1 to 10 µM in each case.

With `FC(F)(F)c1ccccc1OCCN1CCC2(CC1)CC2c1ccc(Cl)cc1` (single isomer, unassigned) [Compound 216b, 1-(4-chlorophenyl)-6-(2-(2-(trifluoromethyl)phenoxy)ethyl)-6-azaspiro[2.5]octane], the results for the EC50 at human D2R/β-arrestin [1] and at human D2R/β-arrestin [2] were 10 to 30 µM and more than 30 µM, respectively. The IC50 against human D2R/β-arrestin [3] was 10 to 30 µM; against human D2R/β-arrestin [4] it was more than 30 µM.

For the compound `COc1ccccc1OCCN1CCC(C)(Oc2ccc(Cl)cc2)C1` (centres unmarked) [Compound 2, 3-(4-Chlorophenoxy)-1-(2-(2-methoxyphenoxy)ethyl)-3-methyl pyrrolidine], the EC50 on human D2R/β-arrestin [1] and at human D2R/β-arrestin [2] was more than 30 µM throughout. For the same compound, the IC50 at human D2R/β-arrestin [3] and against human D2R/β-arrestin [4] was 0.1 to 1 µM in each case.

`CC1(Oc2ccc(Cl)cc2)CCN(CCCCOc2ccccc2)C1` (centres unmarked) [Compound 3, 3-(4-chlorophenoxy)-3-methyl-1-(4-phenoxybutyl)pyrrolidine]: the EC50 on human D2R/β-arrestin [1] and on human D2R/β-arrestin [2] was more than 30 µM throughout. Also, the figures for the IC50 against human D2R/β-arrestin [3] and against human D2R/β-arrestin [4] were 1 to 10 µM and 0.1 to 1 µM, respectively.

On to `CC1(Oc2ccc(Cl)cc2)CCN(CCCOc2ccccc2)C1` (centres unmarked) [Compound 4, 3-(4-chlorophenoxy)-3-methyl-1-(3-phenoxypropyl)pyrrolidine], for which the EC50 at human D2R/β-arrestin [1] and on human D2R/β-arrestin [2] was more than 30 µM each time. Besides, the IC50 at human D2R/β-arrestin [3] lay within 1 to 10 µM; on human D2R/β-arrestin [4], 0.1 to 1 µM.

For the compound `CC1(Oc2ccc(Cl)cc2)CCN(CCOc2ccccc2Cl)C1` (centres unmarked) [Compound 5, 3-(4-chlorophenoxy)-1-(2-(2-chlorophenoxy)ethyl)-3-methylpyrrolidine], the EC50 at human D2R/β-arrestin [1] and on human D2R/β-arrestin [2] was more than 30 µM in each case. The IC50 on human D2R/β-arrestin [3] was 0.1 to 1 µM; at human D2R/β-arrestin [4], less than 0.1 µM.

For the compound `Cc1ccccc1OCCN1CCC(C)(Oc2ccc(Cl)cc2)C1` (centres unmarked) [Compound 6, 3-(4-chlorophenoxy)-3-methyl-1-(2-(o-tolyloxy)ethyl)pyrrolidine], the EC50 at human D2R/β-arrestin [1] and at human D2R/β-arrestin [2] was more than 30 µM throughout. For the same compound, the IC50 against human D2R/β-arrestin [3] lay within 1 to 10 µM; against human D2R/β-arrestin [4] it was 0.1 to 1 µM.

Consider `CC1(Oc2ccc(Cl)cc2)CCN(CCOc2ccccc2C(F)(F)F)C1` (centres unmarked) [Compound 8, 3-(4-chlorophenoxy)-3-methyl-1-(2-(2-(trifluoromethyl)phenoxy)ethyl) pyrrolidine], for which the EC50 at human D2R/β-arrestin [1] and on human D2R/β-arrestin [2] was more than 30 µM in each case. The figures for the IC50 against human D2R/β-arrestin [3] and on human D2R/β-arrestin [4] were 1 to 10 µM and 0.1 to 1 µM, respectively.

As to `CC1(Oc2ccc(Cl)cc2)CCN(CCOc2ccccc2F)C1` (centres unmarked) [Compound 9, 3-(4-chlorophenoxy)-1-(2-(2-fluorophenoxy)ethyl)-3-methylpyrrolidine], the EC50 was less than 0.1 µM at human D2R/β-arrestin [1] and more than 30 µM on human D2R/β-arrestin [2]. The IC50 against human D2R/β-arrestin [3] is 0.1 to 1 µM; at human D2R/β-arrestin [4] it was more than 30 µM.

With `CC1(Oc2ccc(Cl)cc2)CCN(CCOc2cccc(Cl)c2)C1` (centres unmarked) [Compound 10, 3-(4-chlorophenoxy)-1-(2-(3-chlorophenoxy)ethyl)-3-methylpyrrolidine], the EC50 is less than 0.1 µM on human D2R/β-arrestin [1] and more than 30 µM at human D2R/β-arrestin [2]. For the same compound, the results for the IC50 against human D2R/β-arrestin [3] and against human D2R/β-arrestin [4] were 1 to 10 µM and more than 30 µM, respectively.

With `Cc1cccc(OCCN2CCC(C)(Oc3ccc(Cl)cc3)C2)c1` (centres unmarked) [Compound 11, 3-(4-chlorophenoxy)-3-methyl-1-(2-(m-tolyloxy)ethyl)pyrrolidine], the EC50 at human D2R/β-arrestin [1] was less than 0.1 µM; at human D2R/β-arrestin [2] it was more than 30 µM. Moreover, the IC50 was in the range of 1 to 10 µM at human D2R/β-arrestin [3] and 0.1 to 1 µM against human D2R/β-arrestin [4].

Regarding `CC1(Oc2ccc(Cl)cc2)CCN(CCOc2cccnc2)C1` (centres unmarked) [Compound 12, 3-(2-(3-(4-chlorophenoxy)-3-methylpyrrolidin-1-yl)ethoxy)pyridine], the EC50 on human D2R/β-arrestin [1] and on human D2R/β-arrestin [2] was less than 0.1 µM each time. In addition, the IC50 against human D2R/β-arrestin [3] and on human D2R/β-arrestin [4] was more than 30 µM in each case.

Consider `CC1(Oc2ccc(Cl)cc2)CCN(CCOc2cccc(C(F)(F)F)c2)C1` (centres unmarked) [Compound 13, 3-(4-chlorophenoxy)-3-methyl-1-(2-(3-(trifluoromethyl)phenoxy)ethyl) pyrrolidine], for which the EC50 at human D2R/β-arrestin [1] and at human D2R/β-arrestin [2] was more than 30 µM throughout. Besides, the results for the IC50 against human D2R/β-arrestin [3] and on human D2R/β-arrestin [4] were 1 to 10 µM and 0.1 to 1 µM, respectively.

In the case of `CC1(Oc2ccc(Cl)cc2)CCN(CCOc2ccc(F)cc2)C1` (centres unmarked) [Compound 14, 3-(4-chlorophenoxy)-1-(2-(4-fluorophenoxy)ethyl)-3-methylpyrrolidine], the figures for the EC50 at human D2R/β-arrestin [1] and at human D2R/β-arrestin [2] were less than 0.1 µM and more than 30 µM, respectively. In addition, the IC50 on human D2R/β-arrestin [3] fell in the range of 1 to 10 µM; on human D2R/β-arrestin [4], 0.1 to 1 µM.

Regarding `CC1(Oc2ccc(Cl)cc2)CCN(CCOc2ccc(Cl)cc2)C1` (centres unmarked) [Compound 15, 3-(4-chlorophenoxy)-1-(2-(4-chlorophenoxy)ethyl)-3-methylpyrrolidine], the EC50 is less than 0.1 µM on human D2R/β-arrestin [1] and more than 30 µM at human D2R/β-arrestin [2]. The IC50 against human D2R/β-arrestin [3] and against human D2R/β-arrestin [4] was 1 to 10 µM throughout.

Take `Cc1ccc(OCCN2CCC(C)(Oc3ccc(Cl)cc3)C2)cc1` (centres unmarked) [Compound 16, 3-(4-Chlorophenoxy)-3-methyl-1-(2-(p-tolyloxy)ethyl)pyrrolidine]: the results for the EC50 at human D2R/β-arrestin [1] and at human D2R/β-arrestin [2] were 0.1 to 1 µM and more than 30 µM, respectively. For the same compound, the IC50 at human D2R/β-arrestin [3] was 1 to 10 µM; against human D2R/β-arrestin [4] it was more than 30 µM.

On to `CC1(Oc2ccc(Cl)cc2)CCN(CCOc2ccc(C(F)(F)F)cc2)C1` (centres unmarked) [Compound 17, 3-(4-chlorophenoxy)-3-methyl-1-(2-(4-(trifluoromethyl)phenoxy)ethyl) pyrrolidine], for which the EC50 on human D2R/β-arrestin [1] and at human D2R/β-arrestin [2] was more than 30 µM throughout. In addition, the IC50 against human D2R/β-arrestin [3] was 10 to 30 µM; on human D2R/β-arrestin [4], 1 to 10 µM.

As to `CC1(Oc2ccc(Cl)cc2)CCN(CCOc2ccc3ncsc3c2)C1` (centres unmarked) [Compound 18, 6-(2-(3-(4-chlorophenoxy)-3-methylpyrrolidin-1-yl)ethoxy)benzo[d]thiazole], the EC50 is 0.1 to 1 µM at human D2R/β-arrestin [1] and more than 30 µM at human D2R/β-arrestin [2]. For the same compound, the IC50 on human D2R/β-arrestin [3] is 1 to 10 µM; at human D2R/β-arrestin [4], more than 30 µM.

With `COc1cccc(OCCN2CCC(C)(Oc3ccc(Cl)cc3)C2)c1` (centres unmarked) [Compound 19, 3-(4-chlorophenoxy)-1-(2-(3-methoxyphenoxy)ethyl)-3-methyl pyrrolidine], the EC50 on human D2R/β-arrestin [1] is less than 0.1 µM; on human D2R/β-arrestin [2], 1 to 10 µM. Besides, the IC50 against human D2R/β-arrestin [3] and against human D2R/β-arrestin [4] was more than 30 µM throughout.

For the compound `COc1ccc(OCCN2CCC(C)(Oc3ccc(Cl)cc3)C2)cc1` (centres unmarked) [Compound 20, 3-(4-chlorophenoxy)-1-(2-(4-methoxyphenoxy)ethyl)-3-methyl pyrrolidine], the values for the EC50 on human D2R/β-arrestin [1] and on human D2R/β-arrestin [2] were less than 0.1 µM and more than 30 µM, respectively. Besides, the IC50 against human D2R/β-arrestin [3] was 10 to 30 µM; against human D2R/β-arrestin [4] it was more than 30 µM.

Take `CC1(Oc2ccc(Cl)cc2)CCN(CCOC2CCCCC2)C1` (centres unmarked) [Compound 21, 3-(4-chlorophenoxy)-1-(2-(cyclohexyloxy)ethyl)-3-methylpyrrolidine]: the EC50 on human D2R/β-arrestin [1] and at human D2R/β-arrestin [2] was more than 30 µM each time. In addition, the IC50 against human D2R/β-arrestin [3] and at human D2R/β-arrestin [4] was 1 to 10 µM each time.
